These results are taken from ChEMBL document CHEMBL3832542, “DailyMed|setid=00f30ef0-e65c-4b41-ad1b-afaab9bcfc7d | CLONIDINE- clonidine patch, extended release|Lake Erie Medical DBA Quality Care Products LLC”.

Data set [1] can be described thus: Steady-state pharmacokinetic parameters for Clonidine evaluated following transdermal administration of 0.1, 0,2 and 0.3 mg doses of Clonidine to the upper outer arm for 7 days. Conditions: human, in vivo, topical or ocular.
Data set [2] in a line: Pharmacokinetic parameters for Clonidine evaluated following oral or intravenous administration of Clonidine to subjects. Conditions: human, in vivo.

Regarding `Clc1cccc(Cl)c1N=C1NCCN1` [CLONIDINE], in data set [1], the bioavailability at 168 h was determined as 60% and the half-life at 168 h was 24 h. Besides, in data set [2], the CL renal was found to be 102 mL/min, the Vd amounted to 197 L, the clearance stood at 177 mL/min and the half-life lay in the range of 12 to 16 h.
